Tested on: PKC mediated IL-2 production
Experiment: IL-2 ELISA, human primary T cell, anti CD3+CD28+
Type: cell-based
Conditions: human primary T cells stimulated with αCD3 and αCD28, 24 hours
Method: Compounds 1-328 were tested in a whole cell functional assay for PKC mediated IL-2 production as follows. Human primary T cell isolation and culture: Human primary T cells were prepared as follows. Whole blood was obtained from a healthy volunteer, mixed 1:1 with PBS, layered on to Ficoll Hypaque (Amersham Pharmacia Biotech, Piscataway, N.J., Catalog #17-1440-03) in 2:1 blood/PBS:ficoll ratio and centrifuged for 30 minutes at 4° C. at 1750 rpm. The cells at the serum: ficoll interface were recovered and washed twice with 5 volumes of PBS. These freshly isolated human peripheral blood mononuclear cells were cultured in Yssel's medium containing 40 U/ml IL2 in a flask pre-coated with […] αCD3 and 5 μg/ml αCD28 (Anti-Human CD3, BD Pharmingen Catalog #555336, Anti-Human CD28, Beckman Coulter Catalog #IM1376). The cells were stimulated for 3-4 days, then transferred to a fresh flask and maintained in RPMI (RPMI-1640 with L-Glutamine; Mediatech, Inc., Herndon Va., cat. #10-040-CM) with 10% FBS and 40 U/ml IL-2. The primary T-cells were then washed twice with PBS to remove the IL-2.
Primary T cell stimulation and IL2 ELISA: Human primary T cells (100,000 cells per well) were pre-incubated with or without test compound in Yssel's medium for 1 hour at 37° C. Cells were then stimulated by transferring them to round-bottom 96-well plates pre-coated with […] αCD3 and 5 μg/ml αCD28. For counter assay, cells were instead stimulated by adding 8× stock solutions of PMA and ionomycin in Yssels (for final concentrations of 0.5 ng/ml PMA and 0.1 uM ionomycin, both from Calbiochem). Cells were incubated at 37° C. for 24 hours before 100 μL supernatants were harvested for quantification of IL-2 by ELISA using Human IL-2 Duoset ELISA Kit from R and D Systems, Cat. # DY202E.

Compound	EC50 (Homo sapiens, T-cell, 24 h)	EC50
CC1(C)C[C@H](Nc2nc(Nc3ccc(OC4COC4)c(C#N)c3)ncc2F)C[C@@H]2CCCN21 [Compound 179, 5-(4-((7R,8aS)-5,5-dimethyloctahydroindolizin-7-ylamino)-5-fluoropyrimidin-2-ylamino)-2-(oxetan-3-yloxy)benzonitrile]	100 to 500 nM	
CC1(C)Oc2cc(Nc3ncc(F)c(N[C@@H]4C[C@@H]5CCCN5C(C)(C)C4)n3)ccc2N(CC2CC2)C1=O [Compound 105, 4-(cyclopropylmethyl)-7-((4-(((7R,8aS)-5,5-dimethyloctahydroindolizin-7-yl)amino)-5-fluoropyrimidin-2-yl)amino)-2,2-dimethyl-2H-benzo[b][1,4]oxazin-3(4H)-one]	500 to 1000 nM	
CCc1cc(F)c(Nc2ncc(F)c(N[C@@H]3C[C@@H]4CCCN4C(C)(C)C3)n2)cc1-n1nnn(C)c1=O [Compound 95, 1-(5-(4-((7R,8aS)-octahydro-5,5-dimethylindolizin-7-ylamino)-5-fluoropyrimidin-2-ylamino)-2-ethyl-4-fluorophenyl)-4-methyl-1H-tetrazol-5(4H)-one]	< 100 nM	
COc1cc(Nc2ncc(F)c(N[C@@H]3C[C@@H]4CCCN4C(C)(C)C3)n2)cc(OC)c1 [Compound 161, N2-(3,5-dimethoxyphenyl)-N4-((7R,8aS)-5,5-dimethyloctahydroindolizin-7-yl)-5-fluoropyrimidine-2,4-diamine]	500 to 1000 nM	
Cc1ccc(Nc2ncc(F)c(N[C@H]3C[C@@H]4CC(F)(F)CN4C(C)(C)C3)n2)cc1C#N [Compound 44, 5-(4-((7S,8aR)-2,2-difluoro-octahydro-5,5-dimethylindolizin-7-ylamino)-5-fluoropyrimidin-2-ylamino)-2-methylbenzonitrile]	1000 to 10000 nM	
CC(O)COc1ccc(Nc2ncc(F)c(N[C@@H]3C[C@@H]4CCCN4C(C)(C)C3)n2)cc1C#N (stereo partly drawn) [Compound 201, 5-((4-(((7R,8aS)-5,5-dimethyloctahydroindolizin-7-yl)amino)-5-fluoropyrimidin-2-yl)amino)-2-(2-hydroxypropoxy)benzonitrile]	100 to 500 nM	
CC1(C)C[C@H](Nc2nc(Nc3ccc(OCCCO)c(-n4cnnn4)c3)ncc2F)C[C@@H]2CCCN21 [Compound 215, 3-(4-((4-(((7R,8aS)-5,5-dimethyloctahydroindolizin-7-yl)amino)-5-fluoropyrimidin-2-yl)amino)-2-(1H-tetrazol-1-yl)phenoxy)propan-1-ol]	< 100 nM	
CC(=O)O[C@H]1[C@H](OC(C)=O)C(Oc2ccc(Nc3ncc(F)c(N[C@@H]4C[C@@H]5CCCN5C(C)(C)C4)n3)cc2C#N)OC[C@H]1OC(C)=O (stereo partly drawn) [Compound 197, (3S,4R,5R)-2-(2-cyano-4-((4-(((7R,8aS)-5,5-dimethyloctahydroindolizin-7-yl)amino)-5-fluoropyrimidin-2-yl)amino)phenoxy)tetrahydro-2H-pyran-3,4,5-triyl triacetate]	100 to 500 nM	
[2H]C1(Oc2ccc(Nc3ncc(F)c(N[C@H]4CCN5[C@@H](CCC5(C)C)C4)n3)cc2Cl)CC(OCc2ccccc2)C1 (stereo partly drawn) [Compound 311, N2-(4-(3-(benzyloxy)cyclobutoxy-1-d)-3-chlorophenyl)-N4-((7S,8aS)-3,3-dimethyloctahydroindolizin-7-yl)-5-fluoropyrimidine-2,4-diamine]	1000 to 10000 nM	
Cc1nnnn1-c1cc(Nc2ncc(F)c(N[C@@H]3C[C@@H]4CCCN4C(C)(C)C3)n2)c(F)cc1OC1COC1 [Compound 249, 5-fluoro-N2-(2-fluoro-5-(5-methyl-1H-tetrazol-1-yl)-4-(oxetan-3-yloxy)phenyl)-N4-((7R,8aS)-octahydro-5,5-dimethylindolizin-7-yl)pyrimidine-2,4-diamine]	< 100 nM	
Cn1nnn(-c2cc(Nc3ncc(F)c(N[C@@H]4C[C@@H]5CCCN5C(C)(C)C4)n3)c(F)cc2OCC2COCCO2)c1=O (stereo partly drawn) [Compound 169, 1-(2-((1,4-dioxan-2-yl)methoxy)-5-((4-(((7R,8aS)-5,5-dimethyloctahydroindolizin-7-yl)amino)-5-fluoropyrimidin-2-yl)amino)-4-fluorophenyl)-4-methyl-1,4-dihydro-5H-tetrazol-5-one]	1000 to 10000 nM	
CC1(C)C[C@H](Nc2nc(Nc3ccc(OCCO)c(-n4nnnc4C4CC4)c3)ncc2F)C[C@@H]2CCCN21 [Compound 129, 2-(2-(5-cyclopropyl-1H-tetrazol-1-yl)-4-((4-(((7R,8aS)-5,5-dimethyloctahydroindolizin-7-yl)amino)-5-fluoropyrimidin-2-yl)amino)phenoxy)ethan-1-ol]	< 100 nM	
[2H]C([2H])(O)C([2H])([2H])Oc1ccc(Nc2ncc(F)c(N[C@@H]3C[C@@H]4CCCN4C(C)(C)C3)n2)cc1C#N [Compound 219, 5-((4-(((7R,8aS)-5,5-dimethyloctahydroindolizin-7-yl)amino)-5-fluoropyrimidin-2-yl)amino)-2-(2-hydroxyethoxy-1,1,2,2-d4)benzonitrile]		100 to 500 nM
COCCOc1ccc(Nc2ncc(F)c(N[C@@H]3C[C@@H]4CCCN4C(C)(C)C3)n2)c(F)c1OCCOC [Compound 160, N4-((7R,8aS)-5,5-dimethyloctahydroindolizin-7-yl)-5-fluoro-N2-(2-fluoro-3,4-bis(2-methoxyethoxy)phenyl)pyrimidine-2,4-diamine]	1000 to 10000 nM	
CO[C@@H](C)COc1cc(F)c(Nc2ncc(F)c(N(C[C@H](C)OC)[C@@H]3C[C@@H]4CCCN4C(C)(C)C3)n2)cc1-n1nnn(C)c1=O [Compound 234, 1-(5-((4-(((7R,8aS)-5,5-dimethyloctahydroindolizin-7-yl)((S)-2-methoxypropyl)amino)-5-fluoropyrimidin-2-yl)amino)-4-fluoro-2-((S)-2-methoxypropoxy)phenyl)-4-methyl-1,4-dihydro-5H-tetrazol-5-one]	> 10000 nM	
Cn1nnn(-c2cc(Nc3ncc(F)c(N[C@@H]4C[C@@H]5C[C@@H](F)CN5C(C)(C)C4)n3)c(F)cc2C2CC2)c1=O [Compound 64, 1-(5-(4-((2R,7R,8aR)-2-fluoro-octahydro-5,5-dimethylindolizin-7-ylamino)-5-fluoropyrimidin-2-ylamino)-2-cyclopropyl-4-fluorophenyl)-4-methyl-1H-tetrazol-5(4H)-one]	100 to 500 nM	
COc1cc(Nc2ncc(F)c(N[C@H]3C[C@H]4CCCN4C(C)(C)C3)n2)cc(-n2nnnc2C)c1 (single isomer, unassigned) [Compound 11, (R/S, S/R, R/R, S/S)-5-fluoro-N4-(octahydro-5,5-dimethylindolizin-7-yl)N2-(3-methoxy-5-(5-methyl-1H-tetrazol-1-yl)phenyl)pyrimidine-2,4-diamine]		1000 to 10000 nM
COc1cc(-n2nnnc2C)cc(Nc2ncc(F)c(N[C@@H]3C[C@@H]4CCCN4C(C)(C)C3)n2)c1F [Compound 242, 5-fluoro-N2-(2-fluoro-3-methoxy-5-(5-methyl-1H-tetrazol-1-yl)phenyl)-N4-((7R,8aS)-octahydro-5,5-dimethylindolizin-7-yl)pyrimidine-2,4-diamine]	< 100 nM	
Cn1nnn(-c2cc(Nc3ncc(F)c(NC4CC5CCCN5C(C)(C)C4)n3)ccc2OC2COC2)c1=O (stereo not drawn) [Compound 40, 1-(5-(5-fluoro-4-(octahydro-5,5-dimethylindolizin-7-ylamino)pyrimidin-2-ylamino)-2-(oxetan-3-yloxy)phenyl)-4-methyl-1H-tetrazol-5(4H)-one]	< 100 nM	
Cn1nnn(-c2cc(Nc3ncc(F)c(N[C@@H]4C[C@@H]5CCCN5C(C)(C)C4)n3)ccc2OC2CCOCC2)c1=O (stereo in doubt) [Compound 52, 1-(5-(5-fluoro-4-(octahydro-5,5-dimethylindolizin-7-ylamino)pyrimidin-2-ylamino)-2-(tetrahydro-2H-pyran-4-yloxy)phenyl)-4-methyl-1H-tetrazol-5(4H)-one]	100 to 500 nM	
Cn1nc2n(c1=O)-c1cc(Nc3ncc(F)c(N[C@@H]4C[C@@H]5CCCN5C(C)(C)C4)n3)ccc1OC21COC1 [Compound 293, 5-fluoro-N2-(1H-2,4-dihydron-spiro(2H-1,4-benzoxazine-4,3′-[3H]oxetan)-2-methyl-[1,2,4]triazolo[3,4-c][1,4]benzoxazin-1-one-8-yl)-N4-((7R,8aS)-octahydro-5,5-dimethylindolizin-7-yl)pyrimidine-2,4-diamine]	100 to 500 nM	
CC1(C)C[C@H](Nc2nc(Nc3ccc(O[C@@H]4CCNC[C@H]4F)c(C(F)(F)F)c3)ncc2F)C[C@@H]2CCCN21 [Compound 119]	< 100 nM	
CC1(C)C[C@H](Nc2nc(Nc3ccc(Br)c(C#N)c3)ncc2F)C[C@@H]2CCCN21 [Compound 180, 2-bromo-5-((4-(((7R,8aS)-5,5-dimethyloctahydroindolizin-7-yl)amino)-5-fluoropyrimidin-2-yl)amino)benzonitrile]	100 to 500 nM	
CC1(C)CC[C@H]2C[C@@H](Nc3nc(Nc4ccc(OCCO)c(OC(F)F)c4)ncc3F)CCN21 [Compound 303, 2-(2-(Difluoromethoxy)-4-((4-(((7S,8aS)-3,3-dimethyloctahydroindolizin-7-yl)amino)-5-fluoropyrimidin-2-yl)amino)phenoxy)ethan-1-ol]	100 to 500 nM	

— patent publication US9682976B2, “Protein kinase C inhibitors and uses thereof” (Rigel Pharmaceuticals, Inc., priority 2012, dated 2017)
